Laboratory results taken from publication PMC6722743, “Whole Conversion of Soybean Molasses into Isomaltulose and Ethanol by Combining Enzymatic Hydrolysis and Successive Selective Fermentations” (Biomolecules, 2019).

Target: T1, RMgase (recombinant alpha-galactosidase) (Rhizomucor miehei, UniProt H8Y263)
T1 construct: codon-optimised synthetic gene with XPR2 signal peptide at 5' end (vector pINA1312), secreted by Yarrowia lipolytica transformant G82; purified by DEAE-Sepharose for pH/temperature profiles
T1 sequence (H8Y263 18-751): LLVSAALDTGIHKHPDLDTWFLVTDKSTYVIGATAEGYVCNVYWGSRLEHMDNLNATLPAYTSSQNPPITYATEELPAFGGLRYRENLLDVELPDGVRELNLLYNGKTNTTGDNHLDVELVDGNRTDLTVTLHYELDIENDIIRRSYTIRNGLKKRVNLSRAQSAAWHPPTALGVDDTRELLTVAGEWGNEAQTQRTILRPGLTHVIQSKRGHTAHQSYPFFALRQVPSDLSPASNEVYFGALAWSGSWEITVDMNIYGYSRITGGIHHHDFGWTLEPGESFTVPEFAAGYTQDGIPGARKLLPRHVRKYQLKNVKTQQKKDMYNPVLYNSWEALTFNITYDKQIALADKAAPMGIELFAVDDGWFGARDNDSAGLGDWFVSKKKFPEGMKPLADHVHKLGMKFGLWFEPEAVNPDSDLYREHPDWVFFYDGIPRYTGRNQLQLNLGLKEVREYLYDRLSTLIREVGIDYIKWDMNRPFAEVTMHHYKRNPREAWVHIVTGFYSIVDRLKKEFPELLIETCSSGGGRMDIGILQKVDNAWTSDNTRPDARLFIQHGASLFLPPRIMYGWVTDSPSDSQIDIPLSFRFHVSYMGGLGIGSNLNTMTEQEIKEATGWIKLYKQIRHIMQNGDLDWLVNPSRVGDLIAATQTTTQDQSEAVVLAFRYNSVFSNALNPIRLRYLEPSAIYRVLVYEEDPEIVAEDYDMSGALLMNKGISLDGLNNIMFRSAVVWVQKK
Test: sugar hydrolysis, activity of secreted enzyme
Format: biochemical

OC[C@H]1O[C@H](OC[C@H]2O[C@H](OC[C@H]3O[C@H](O[C@]4(CO)O[C@H](CO)[C@@H](O)[C@@H]4O)[C@H](O)[C@@H](O)[C@@H]3O)[C@H](O)[C@@H](O)[C@H]2O)[C@H](O)[C@@H](O)[C@H]1O [stachyose]
sugar hydrolysis, activity of secreted enzyme: the α-galactosidase activity using pNPG, stachyose, raffinose and melibiose as substrate
